Measurements from patent US20040010001A1, “Methods and compositions for modulating cell proliferation and cell death” (priority 1999, published 2004).
Read-outs that look alike come from different tables or passages of the source.

How the values were obtained:
[1] = system: Human prostate PC3 tumor cells; assay: aFGF/bFGF-induced resistance and reversal by suramin, sulforhodamine B assay; format: cell-based
Method: The experimental conditions are described briefly below. […] Cell number was measured using the sulforhodamine B assay which measures the total protein concentration. […] The FGF-induced resistance was dependent on the FGF concentrations, with a higher resistance at higher FGF concentrations.

[2] = system: human leukemic cell line CCRF-CEM; assay: FGF-induced resistance to fludarabine, MTT assay; format: cell-based; details: 96 h, 96 hour treatment, read-out: concentration required to produce 50%
rat MAT-LyLu tumor cells [3] = assay: Cytotoxicity of suramin alone, reduction of BrdU incorporation; format: cell-based; details: read-out: IC50, suramin concentration required to result in 50% reduction in BrdU incorporation
[4] = system: Human prostate PC3 tumor cells; assay: cells; format: cell-based; details: read-out: IC50, suramin concentration required to result in 50% reduction in BrdU incorporation
Method: PC3 and PC3-LN tumor cells. […] […].
Cells are harvested from subconfluent cultures using trypsin and resuspended in fresh medium before plating. […] Cells are plated in 96 well microtiter plates at a density such that confluence would not be achieved at the end of the drug treatment period. Cells are allowed to attach to the plate surface by growing in drug-free medium for 20 to 24 hr. […] The drug effect should be measured as inhibition of BrdU incorporation, e.g., according to the Cell Proliferation ELISA BrdU (Boehringer Mannheim).

[5] = system: human prostate PC3-LN tumor cells; assay: cells; format: cell-based; details: read-out: IC50, suramin concentration required to result in 50% reduction in BrdU incorporation
rat MAT-LyLu tumor cells [6] = assay: Reversal of CM-induced resistance by FGF antibodies and suramin, BrdU incorporation; format: cell-based; details: CM of histocultures of lung metastases
Method: The source of CM was lung histocultures for the aFGF experiment, and early monolayer lung cultures for the bFGF experiment. The study used four controls: no CM (left solid curves, open circles); addition of 5 μg/ml aFGF or bFGF antibody but no CM (inverted filled triangle, overlaps with the left control curve); addition of CM but no antibody (right solid curves, open square); addition of CM plus a nonspecific antibody, IgG (5 μg/ml, filled diamond, overlaps with the right CM-control curve). Dotted curves, from right to left, addition of aFGF or bFGF antibody concentrations of 0.05 μg/ml (filled circle); 0.1 μg/ml (filled square); 1 or 0.5 μg/ml (filled triangle); and 5 μg/ml (open inverted triangle). […] Similar results were also found for human PC3 prostate tumor cells.
The first study used specific inhibitors of extracellular aFGF and bFGF, i.e., monoclonal antibodies (FIG. 2A). […] In the presence of the active CM, the bFGF antibody produced a concentration-dependent reversal of the CM-induced chemoresistance, with complete reversal by 5 microgram/ml antibody, whereas a nonspecific antibody (i.e., non-immune rabbit IgG) had no effect. For aFGF, the antibody treatment partially reversed the CM-induced resistance; the maximum reversal was about 60% that was obtained with 1 microgram/ml antibody with no significant additional reversal at a 5-fold higher concentration. The second study evaluated the effect of removing aFGF and/or bFGF from the active CM by immunoprecipitation. Removal of bFGF abolished the resistance, whereas removal of aFGF only partially reversed the CM effect. These two studies indicate that both aFGF and bFGF were involved in the resistance, but had different roles.
This study was performed using the rat MAT-LyLu tumor cells as the model tumor cells and using doxorubicin and paclitaxel as the model anticancer agents. The CM used to induce resistance was collected from histocultures of lung metastases (see Table 1). Five microgram/ml anti-bFGF antibody was added.

[7] = system: rat MAT-LyLu tumor cells, human prostate PC3 tumor cells, PC3-LN cells; assay: Reversal of CM/FGF-induced resistance by suramin; format: cell-based
Method: The study was performed using rat MAT-LyLu tumor cells (shown here) and human prostate PC3 and PC3-LN tumor cells. The cytotoxic effect was detected by measuring the changes in BrdU incorporation in treated samples relative to control samples.

[8] = system: human PC3-LN lung metastases
Method: Animal care was in accordance with the guidelines at the Ohio State University. Several human tumor models were used, including (a) lung metastases derived from intravenous injection of human PC3-LN tumor cells, (b) lung tumors derived from direct injection of human PC3 cells in lungs, and (c) subcutaneously implanted PC3 tumors. Four studies were performed. In all studies, drug treatment was administered intravenously via a tail vein, after the tumor was established. The first and second studies used the intravenous PC3-LN lung metastasis model. Briefly, human PC3-LN cells ([…] in 0.1 ml physiologic saline) were injected intravenously, via a tail vein, into immunodeficient mice. […] Treatment was given twice weekly for three weeks. […] Three days after completion of drug treatments, animals were euthanized and their lungs removed, fixed in Bouin's solution to visualize tumor nodules, and then processed for histologic evaluation. […] The lung surface area (counted as number of pixel) occupied by the tumor was calculated as a fraction of the total lung area, using Adobe PhotoShop. The number of tumor cells in residual tumors and the fraction of apoptotic cells in each tumor were also determined microscopically. Because apoptotic cells disappear over time, a second measure of the extent of apoptosis was the density of non-apoptotic cells in the residual tumors. This was determined by counting the number of non-apoptotic tumor cells in randomly selected microscopic fields at 400× magnification. […] In the case of combination therapy where fewer than 5 tumor nodules remained per animal, all residual cells (between 20 to 600 cells per animal) were counted.

human PC3 lung tumors = assay: Lung tumors established by direct injection of PC3 cells into the lungs of immunodeficient mice; format: in vivo; details: suramin alone, three doses of 20 mg/kg (n=3)
Method: (§1) Animal care was in accordance with the guidelines at the Ohio State University. Several human tumor models were used, including (a) lung metastases derived from intravenous injection of human PC3-LN tumor cells, (b) lung tumors derived from direct injection of human PC3 cells in lungs, and (c) subcutaneously implanted PC3 tumors. Four studies were performed. In all studies, drug treatment was administered intravenously via a tail vein, after the tumor was established. The first and second studies used the intravenous PC3-LN lung metastasis model. Briefly, human PC3-LN cells ([…] in 0.1 ml physiologic saline) were injected intravenously, via a tail vein, into immunodeficient mice. […] Treatment was given twice weekly for three weeks. […] The lung surface area (counted as number of pixel) occupied by the tumor was calculated as a fraction of the total lung area, using Adobe PhotoShop. The number of tumor cells in residual tumors and the fraction of apoptotic cells in each tumor were also determined microscopically. […] This was determined by counting the number of non-apoptotic tumor cells in randomly selected microscopic fields at 400× magnification. […] In the case of combination therapy where fewer than 5 tumor nodules remained per animal, all residual cells (between 20 to 600 cells per animal) were counted.

subcutaneous PC3 tumors = details: suramin 10 mg/kg, doxorubicin 5 mg/kg, twice weekly for 3 weeks
Method: Briefly, PC3 cells (5×10^6 cells) were injected subcutaneously.

in vivo = details: mouse, iv, 10 mg/kg
Method: as §1

[9] = Jodrell et al (1994); cited from earlier work
clinical = details: human, plasma, 240 mg/m^2
[10] = system: human prostate cancer PC3 cells; assay: Differential display of genes altered by bFGF treatment; format: cell-based
Method: Differential display was used to identify the down-stream genes that are involved in the bFGF-induced multidrug resistance. […] By this method, the genes that were altered by bFGF treatment in PC3 cells but not in FaDu cells were identified. The identified genes are likely to be associated with the bFGF-induced multidrug resistance.
For differential display, total RNA was isolated from the cells and reverse-transcripted in single strand cDNA. PCR was performed using a pair of T and P primers. […] Five of these bands were reproducibly altered in PC3 cells, but not in FaDu cells. These bands were cut from the gels, reamplified and cloned into pGEM-T vector. Nine different clones were identified and sequenced. The gene sequence was compared to the data in the NCBI GenBank. […] Primers were synthesized for drug resistant cancer cells. Among the nine clones, five were altered reproducibly by bFGF treatment while bFGF had no effect on the remaining four clones. The expression of two of the known genes, TSC22 and VEGF, were increased by 20 to 40%, whereas the expression of the three new genes (temporarily named FSC-1, FSC-2, and FSC-3) were induced by 65%, 300%, and 40%. TSC22 and VEGF are not known to be regulated by bFGF.

rat MAT-LyLu cells = assay: Restoration of resistance by recombinant FGF in FGF-immunoprecipitated CM; format: cell-based
Method: The study was performed using rat MAT-LyLu cells. The reversal in CM-induced resistance was detected by measuring the changes in BrdU incorporation in treated samples relative to control samples. The source of CM was lung histocultures for both aFGF and bFGF experiments. The study used two controls: no CM (left solid curves, empty circles); with CM (right solid curves, empty squares). Upper left: CM minus […] (filled square); CM minus aFGF plus r-aFGF (filled circles, overlaps with the right CM-control curve). Upper right: CM minus bFGF (filled square, overlaps with the left control curve); CM minus bFGF plus r-bFGF (filled circle, overlaps with the right CM control curve). Lower left: Both the CM minus aFGF and bFGF (filled square) and the CM minus aFGF and bFGF plus aFGF (filled circle) curves overlap with the left control curve. Lower center: CM minus aFGF and bFGF (filled square, overlaps with left control curve); CM minus aFGF and bFGF plus r-bFGF (filled circle). Lower right: CM minus aFGF and bFGF (filled square, overlaps with left control curve); CM minus aFGF and bFGF plus r-aFGF and r-bFGF (filled circle, overlaps with the right CM-control curve).
aFGF or bFGF was immunoprecipitated with their respective monoclonal antibody (1 microgram/ml), in the presence of Protein G PLUS/protein A agarose (Oncogene). This procedure reduced the bFGF level in the original CM to below the detection limit of 5 pg/ml by the ELISA (Oncogene), and the aFGF level in the concentrated CM to below the detection limit by Western blotting.
The third study determined whether aFGF and/or bFGF are required for the resistance. Endogenous aFGF and/or bFGF were removed from the active CM by immunoprecipitation, and then reconstituted the CM using recombinant proteins. […] The fifth study confirmed that aFGF and bFGF were the main cause of chemoresistance, by using only r-aFGF and r-bFGF (i.e., without the immunoprecipitated CM) to induce resistance (FIG. 3). When given alone, r-aFGF had no effect whereas r-bFGF induced a concentration-dependent resistance. […]

rat tumor cells = assay: Doubling time of exponentially growing cells; format: cell-based; details: treatment with r-bFGF
PC3 tumor cells = assay: Doubling time of exponentially growing cells; format: cell-based, human; details: treatment with r-bFGF
[11] = no suramin, relative to control
[12] = doxorubicin study: suramin 10 mg/kg, doxorubicin 5 mg/kg, intravenous twice weekly for three weeks
[13] = paclitaxel study: suramin 10 mg/kg, paclitaxel 15 mg/kg, intravenous twice weekly for three weeks
[14] = suramin 10 mg/kg, doxorubicin 5 mg/kg, intravenous twice weekly for three weeks

Work on `Nc1nc(F)nc2c1ncn2[C@@H]1O[C@H](CO)[C@@H](O)[C@@H]1O` [Fludarabine] yielded an IC50 ([1]; Homo sapiens, read-out: IC50, Control (drug treatment only, without FGF treatment), No suramin, drug 96 hours) of 5.15 µM, an IC50 ([1]; Homo sapiens, read-out: IC50, aFGF 0.3 ng/ml + bFGF 1 ng/ml, No suramin, FGF pretreatment 96 hours, drug 96 hours) of 13.5 µM and an IC50 ([1]; Homo sapiens, read-out: IC50, aFGF 1 ng/ml + bFGF 3 ng/ml, No suramin, FGF pretreatment 96 hours, drug 96 hours) of 21.9 µM. The “Resistance, Folds, aFGF 0.3 ng/ml + bFGF 1 ng/ml” value [1, 11] was 2.61 Folds, the “Resistance, Folds, aFGF 1 ng/ml + bFGF 3 ng/ml” value [1, 11] was 4.25 Folds and the IC50 ([1]; read-out: IC50, Control (without FGF treatment), Suramin, 15 μM, drug 96 hours with 15 μM suramin) was 5.2 µM. For the same molecule, the IC50 ([1]; read-out: IC50, aFGF 0.3 ng/ml + bFGF 1 ng/ml, With suramin, FGF pretreatment 96 hours, drug 96 hours with 15 micromolar suramin) was 4.69 µM, the IC50 ([1]; read-out: IC50, aFGF 1 ng/ml + bFGF 3 ng/ml, With suramin, FGF pretreatment 96 hours, drug 96 hours with 15 micromolar suramin) was 5.85 µM and the IC50 ([2]; absence of FGF) was 4 µM. It also gave an IC50 ([2]; r-aFGF (1 ng/ml) and r-bFGF (3 ng/ml)) of 6 µM.
`Cc1ccc(C(=O)Nc2ccc(S(=O)(=O)O)c3cc(S(=O)(=O)O)cc(S(=O)(=O)O)c23)cc1NC(=O)c1cccc(NC(=O)Nc2cccc(C(=O)Nc3cc(C(=O)Nc4ccc(S(=O)(=O)O)c5cc(S(=O)(=O)O)cc(S(=O)(=O)O)c45)ccc3C)c2)c1` [Suramin] gave an IC50 (rat MAT-LyLu tumor cells [3]) of 235 µM, an IC50 [4] of 93 µM and an IC50 [5] of 98 µM. The “suramin concentration that completely inhibited the bFGF-induced resistance” value (rat MAT-LyLu tumor cells [6]) was 1 to 2 µM, the “concentration needed to fully reverse the FGF-induced resistance” value [7] was 1 to 15 µM and the “% Apoptotic cells per tumor” value [8, 12] was 10 ± 7%. For the same molecule, the “Density of nonapoptotic cells in residual tumors, cells/field” value [8, 12] was 139 ± 30 cells/field, the “% Apoptotic cells per tumor” value [8, 13] was 4 ± 3% and the “Density of nonapoptotic cells in residual tumors, cells/field” value [8, 13] was 185 ± 104 cells/field. The “antitumor effect and toxicity of suramin alone” value ([8]; suramin 10 mg/kg alone) was “no significant antitumor effect, nor toxicity”, the “% Lung surface area occupied by tumor” value [8, 14] was 7 ± 3% and the “% Tumor-free animals” value [8, 14] was 0%. The “animals free of tumors” value (human PC3 lung tumors) was “No animals”, the “effect on tumor growth” value (subcutaneous PC3 tumors) was “no antitumor activity” and the concentration at 72 h (in vivo) was roughly 10 µM. The total body clearance [9] was 0.0095 liter/hour/m^2, the concentration at 0 h (clinical) was roughly 90 µg/mL and the concentration at 96 h (clinical) was roughly 18000 ng/mL.
For “bFGF: basic Fibroblast Growth Factor used for treatment of PC3 cells”, the “induction of expression of FSC-1” value [10] was 65%, the “induction of expression of FSC-2” value [10] was 300% and the “induction of expression of FSC-3” value [10] was 40%.
In the case of “r-bFGF: human recombinant bFGF, identical to the 18 kDa human bFGF except for the extra methionine at the amino terminus”, the “concentration needed relative to the endogenous bFGF concentration in the native CM” value (rat MAT-LyLu cells; 50 ng/ml versus about 0.9 ng/ml) is reported as 55 fold, the “concentration of exogenous r-bFGF needed to restore the resistance” value (rat MAT-LyLu cells; CM depleted of both aFGF and bFGF) is reported as 50 ng/mL and the “doubling time, unchanged by treatment” value (rat tumor cells) is reported as 17 h. The “doubling time, unchanged by treatment” value (PC3 tumor cells) was 24 h.
